From patent publication US20240139166A1, “OPHTHALMIC COMPOSITIONS FOR PRESBYOPIA” (Sydnexis, Inc., priority 2021, published 2024)

Assay: Stability of pilocarpine in deuterated water (pilocarpic acid formation)
Format: physicochemical
Method: The stability of pilocarpine was tested over a range of concentrations. Pilocarpic acid formation, a major degradant of pilocarpine, was measured. […] The stability of pilocarpine, as measured by the percent of pilocarpic acid formation, was measured at different pH/pD values, as depicted in FIG. 2.

## CC[C@@H]1C(=O)OC[C@@H]1Cc1cncn1C [pilocarpine]
FIG. 1
  Stability (pilocarpic acid formation) in deuterated water versus non-deuterated water: improved stability in deuterated water as compared to non-deuterated water
  Stability (pilocarpic acid formation) over a range of pilocarpine concentrations: improved stability at higher concentrations of pilocarpine
  Stabilizing factor of deuterated water versus pilocarpine concentration: stabilizing factor increases as pilocarpine concentration decreases
FIG. 2
  Rate of pilocarpic acid formation at different pH/pD values: linear log/log relationship was identified between the log(rate of pilocarpic acid formation) and pH
